# Reference: patent US20170122958A1, “Enzymes Functional Probes” (University of Dundee, priority 2013, published 2017)
# Columns and labels:
# [1] = target: T1, WT GFP-Brd4 (Homo sapiens, UniProt O60885); assay: FRAP in transfected U2OS cells; format: cell-based; conditions: WT GFP-Brd4, 1 μM compound
# T1 construct: full length human GFP-BRD4 transfected into human osteosarcoma cells (U2OS); expressed in transfected cells; host or cells: U2OS human osteosarcoma cells
# Protocol: The data shown represent the mean±SEM (n=35-50). Statistical significance was determined by one-tailed t tests: *<0.05; **P<0.01; ***P<0.001; n.s. not significant.
# Fluorescence recovery after photobleaching (FRAP) experiments were performed in human osteosarcoma U2OS cells transfected with mammalian expression constructs encoding wild type and mutant GFP chimeras of Brd4. Cells were cultured in DMEM (Gibco) supplemented with fetal bovine serum, Penicillin/Streptamycin and L-Glutamine. Cells were seeded into glass bottom dishes (Willco) to about 40% confluency and transfected with the constructs using Effectene (QIAGEN) at least 18 h before the experiment. Treatment of cells with 1 μM compounds (in DMSO) was performed 12-15 h before the experiment. Cells without compound treatment were treated with DMSO as a vehicle control at least 15 h before the experiment. DMEM was exchanged for CO2-independent phenol red-free media (Gibco) for the experiment. […] A spot was bleached with a single pulse at 100% laser power for 0.2 s and recovery images were acquired using a coolsnap HQ camera with a 2×2 bin at 0.05 s exposure. […] FRAP data was analysed using the SoftWorX software. It was fitted to a 2-dimensional recovery curve using the method of Axelrod as implemented within the software and half-times of recovery were calculated.
# [2] = target: T2, brdt(2)L306A (Homo sapiens, UniProt Q58F21, L306A); assay: ITC reverse titration of protein into compound; format: binding; conditions: 30° C.
# T2 construct: Plasmids of the eight single BET bromodomain constructs Brd2(1), Brd2(2), Brd3(1), Brd3(2), Brd4(1), Brd4(2), Brdt(1) and Brdt(2); His6 (N); made in house; host or cells: E. coli BL21(DE3)
# Protocol: (§1) Results obtained were very promising, showing small shifts from 1.2° C. to a maximum of 2.6° C. for all the eight BET wild types and shifts from 5.4° C. to 13.4° C. for all the leucine to alanine mutants.
# (§2) For all mutants, protein was titrated at a concentration between 150-200 μM into a solution of the compound at a concentration of 15-20 μM. In the case of the wild types, protein was titrated at a concentration of 350-400 μM into a solution of the compound between 15-20 μM. FIG. 11 is an illustrative example of the curves obtained for the Brd3(1) bromodomain construct and its respective leucine to alanine mutant titrated into compound 11. We can easily observe a hyperbolic shape for the titration of wild type Brd3(1) into compound 11, corresponding to a low affinity interaction, while for Brd3(1)*(Leu070-Ala) we can easily observe a sharp sigmoidal behaviour corresponding to a high affinity interaction. Furthermore, there is a clear difference in the ΔH produced by each interaction. (ΔH=−22 kcal/mol vs. mutant compared to −7 kcal/mol vs. wild type).
# (§3) ITC experiments were carried out on a ITC200 instrument from MicroCal™ Experiments were conducted at 3 different temperatures 15° C., 25° C. and 30° C., while stirring at 1000 rpm. Buffers of proteins, peptide and compounds were matched to 20 mM HEPES pH 7.5 at 25° C. and 100 mM NaCl. Frozen protein was buffer exchanged as described for the DSF experiments. Each titration comprised 1 initial injection of 0.4 μl lasting 0.8 s, followed by 19 injections of 2 μl lasting 4 s each at 2 min intervals. The initial injection was discarded during data analysis. Standard and reverse titrations were conducted depending on the binding partners.
# (§4) Reverse titrations were conducted to test the binding of the known ligands and the novel chemical probes to the wild types and the mutants. Experiments were carried out either at 25° C. or 30° C. For strong binders, a concentration of 150-200 μM of the protein was injected into a solution of 15-20 μM compound. […] In cases where the compound was solubilized in dimethyl sulfoxide, DMSO concentration was adjusted to 1% both in the syringe and in the cell.
# (§5) All the data was fitted to a single binding site model using the Microcal LLC ITC200 Origin software provided by the manufacturer to yield enthalpies of binding (ΔH) and binding constants (Kas). Further thermodynamic parameters were calculated from these values (changes in entropy ΔS, changes in free energy AG and dissociation constants (Kds)).
# [3] = target: T3, Brd3(1)*(Leu070-Ala) (Homo sapiens, UniProt Q15059, L70A); assay: ITC reverse titration of protein into compound; format: binding; conditions: for Selectivity factor Kd WT/Kd Leu/Ala: 30° C.
# T3 construct: Plasmids of the eight single BET bromodomain constructs Brd2(1), Brd2(2), Brd3(1), Brd3(2), Brd4(1), Brd4(2), Brdt(1) and Brdt(2); His6 (N); made in house; host or cells: E. coli BL21(DE3)
# T3 sequence (Q15059 34-140 L70A): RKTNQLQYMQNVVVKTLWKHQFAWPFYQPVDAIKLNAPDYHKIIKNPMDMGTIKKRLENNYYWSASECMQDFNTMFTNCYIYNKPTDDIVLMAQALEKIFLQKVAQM
# Protocol: as §1, §2, §3, §4, §5
# [4] = target: T4, brd3(2)L344A (Homo sapiens, UniProt Q15059, L345A); assay: ITC reverse titration of protein into compound; format: binding; conditions: 30° C.
# T4 construct: Plasmids of the eight single BET bromodomain constructs Brd2(1), Brd2(2), Brd3(1), Brd3(2), Brd4(1), Brd4(2), Brdt(1) and Brdt(2); His6 (N); made in house; host or cells: E. coli BL21(DE3)
# T4 sequence (Q15059 306-415 L345A): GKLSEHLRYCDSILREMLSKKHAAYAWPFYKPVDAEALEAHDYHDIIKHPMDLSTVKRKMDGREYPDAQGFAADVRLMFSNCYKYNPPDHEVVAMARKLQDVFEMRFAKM
# Protocol: as §1, §2, §3, §4, §5
# [5] = target: T5, Brd3(1) (Homo sapiens, UniProt Q15059); assay: ITC reverse titration of protein into compound; format: binding; conditions: ITC 30° C., 1% DMSO
# T5 construct: Plasmids of the eight single BET bromodomain constructs Brd2(1), Brd2(2), Brd3(1), Brd3(2); His6 (N); made in house; host or cells: E. coli BL21(DE3)
# T5 sequence (Q15059 34-140 limits assumed): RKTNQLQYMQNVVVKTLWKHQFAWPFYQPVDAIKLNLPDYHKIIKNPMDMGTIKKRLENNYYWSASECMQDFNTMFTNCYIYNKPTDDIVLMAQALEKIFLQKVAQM
# Protocol: as §1, §2, §3, §4, §5
# [6] = target: T6, brd4(1)L094A (Homo sapiens, UniProt O60885, L94A); assay: ITC reverse titration of protein into compound; format: binding; conditions: 30° C.
# T6 construct: Plasmids of the eight single BET bromodomain constructs Brd2(1), Brd2(2), Brd3(1), Brd3(2), Brd4(1), Brd4(2), Brdt(1) and Brdt(2); His6 (N); made in house; host or cells: E. coli BL21(DE3)
# Protocol: as §1, §2, §3, §4, §5
# [7] = target: T7, brd4(2)L387A (Homo sapiens, UniProt O60885, L387A); assay: ITC reverse titration of protein into compound; format: binding; conditions: 30° C.
# T7 construct: Plasmids of the eight single BET bromodomain constructs Brd2(1), Brd2(2), Brd3(1), Brd3(2), Brd4(1), Brd4(2), Brdt(1) and Brdt(2); His6 (N); made in house; host or cells: E. coli BL21(DE3)
# Protocol: as §1, §2, §3, §4, §5
# [8] = target: T8, brdt(1)L063A (Homo sapiens, UniProt Q58F21, L63A); assay: ITC reverse titration of protein into compound; format: binding; conditions: 30° C.
# T8 construct: Plasmids of the eight single BET bromodomain constructs Brd2(1), Brd2(2), Brd3(1), Brd3(2), Brd4(1), Brd4(2), Brdt(1) and Brdt(2); His6 (N); made in house; host or cells: E. coli BL21(DE3)
# Protocol: as §1, §2, §3, §4, §5
compound,measurement,setting,value
"CC[C@@H](C(=O)OC)[C@@H]1N=C(c2ccc(Cl)cc2)c2cc(OC)ccc2-n2c(C)nnc21 (racemic) [Compound 11, (+−)-methyl (R)-2-((S)-6-(4-chlorophenyl)-8-methoxy-1-methyl-4H-benzo[f][1,2,4]triazolo[4,3-a][1,4]diazepin-4-yl)butanoate]",Fluorescence recovery after photobleaching (recovery time),[1],no reduction of recovery times relative to vehicle-treated cells
same,Selectivity factor Kd WT/Kd Leu/Ala,[2]; brdt(2)L306A vs WT brd2(1),63
same,Selectivity factor Kd WT/Kd Leu/Ala,[2]; brdt(2)L306A vs WT brd2(2),122
same,Selectivity factor Kd WT/Kd Leu/Ala,[2]; brdt(2)L306A vs WT brd3(1),49
same,Selectivity factor Kd WT/Kd Leu/Ala,[2]; brdt(2)L306A vs WT brd3(2),52
same,Selectivity factor Kd WT/Kd Leu/Ala,[2]; brdt(2)L306A vs WT brd4(1),90
same,Selectivity factor Kd WT/Kd Leu/Ala,[2]; brdt(2)L306A vs WT brd4(2),71
same,Selectivity factor Kd WT/Kd Leu/Ala,[2]; brdt(2)L306A vs WT brdt(1),60
same,Selectivity factor Kd WT/Kd Leu/Ala,[2]; brdt(2)L306A vs WT brdt(2),86
same,ΔH Brd3(1)*(Leu070-Ala),"[3]; ITC 30° C., 1% DMSO",-22 kcal/mol
same,Selectivity factor Kd WT/Kd Leu/Ala,[3]; brd3(1)L070A vs WT brd2(1),244
same,Selectivity factor Kd WT/Kd Leu/Ala,[3]; brd3(1)L070A vs WT brd2(2),469
same,Selectivity factor Kd WT/Kd Leu/Ala,[3]; brd3(1)L070A vs WT brd3(1),190
same,Selectivity factor Kd WT/Kd Leu/Ala,[3]; brd3(1)L070A vs WT brd3(2),202
same,Selectivity factor Kd WT/Kd Leu/Ala,[3]; brd3(1)L070A vs WT brd4(1),346
same,Selectivity factor Kd WT/Kd Leu/Ala,[3]; brd3(1)L070A vs WT brd4(2),273
same,Selectivity factor Kd WT/Kd Leu/Ala,[3]; brd3(1)L070A vs WT brdt(1),233
same,Selectivity factor Kd WT/Kd Leu/Ala,[3]; brd3(1)L070A vs WT brdt(2),332
same,Selectivity factor Kd WT/Kd Leu/Ala,[4]; brd3(2)L344A vs WT brd2(1),135
same,Selectivity factor Kd WT/Kd Leu/Ala,[4]; brd3(2)L344A vs WT brd2(2),261
same,Selectivity factor Kd WT/Kd Leu/Ala,[4]; brd3(2)L344A vs WT brd3(1),106
same,Selectivity factor Kd WT/Kd Leu/Ala,[4]; brd3(2)L344A vs WT brd3(2),112
same,Selectivity factor Kd WT/Kd Leu/Ala,[4]; brd3(2)L344A vs WT brd4(1),192
same,Selectivity factor Kd WT/Kd Leu/Ala,[4]; brd3(2)L344A vs WT brd4(2),152
same,Selectivity factor Kd WT/Kd Leu/Ala,[4]; brd3(2)L344A vs WT brdt(1),130
same,Selectivity factor Kd WT/Kd Leu/Ala,[4]; brd3(2)L344A vs WT brdt(2),185
same,ΔH wild type Brd3(1),[5],-7 kcal/mol
same,Selectivity factor Kd WT/Kd Leu/Ala,[6]; brd4(1)L094A vs WT brd2(1),206
same,Selectivity factor Kd WT/Kd Leu/Ala,[6]; brd4(1)L094A vs WT brd2(2),396
same,Selectivity factor Kd WT/Kd Leu/Ala,[6]; brd4(1)L094A vs WT brd3(1),160
same,Selectivity factor Kd WT/Kd Leu/Ala,[6]; brd4(1)L094A vs WT brd3(2),170
same,Selectivity factor Kd WT/Kd Leu/Ala,[6]; brd4(1)L094A vs WT brd4(1),292
same,Selectivity factor Kd WT/Kd Leu/Ala,[6]; brd4(1)L094A vs WT brd4(2),231
same,Selectivity factor Kd WT/Kd Leu/Ala,[6]; brd4(1)L094A vs WT brdt(1),197
same,Selectivity factor Kd WT/Kd Leu/Ala,[6]; brd4(1)L094A vs WT brdt(2),281
same,Selectivity factor Kd WT/Kd Leu/Ala,[7]; brd4(2)L387A vs WT brd2(1),45
same,Selectivity factor Kd WT/Kd Leu/Ala,[7]; brd4(2)L387A vs WT brd2(2),88
same,Selectivity factor Kd WT/Kd Leu/Ala,[7]; brd4(2)L387A vs WT brd3(2),38
same,Selectivity factor Kd WT/Kd Leu/Ala,[7]; brd4(2)L387A vs WT brd4(1),65
same,Selectivity factor Kd WT/Kd Leu/Ala,[7]; brd4(2)L387A vs WT brd4(2),51
same,Selectivity factor Kd WT/Kd Leu/Ala,[7]; brd4(2)L387A vs WT brdt(1),44
same,Selectivity factor Kd WT/Kd Leu/Ala,[7]; brd4(2)L387A vs WT brdt(2),62
same,Selectivity factor Kd WT/Kd Leu/Ala,[8]; brdt(1)L063A vs WT brd2(1),48
same,Selectivity factor Kd WT/Kd Leu/Ala,[8]; brdt(1)L063A vs WT brd2(2),92
same,Selectivity factor Kd WT/Kd Leu/Ala,[8]; brdt(1)L063A vs WT brd3(1),37
same,Selectivity factor Kd WT/Kd Leu/Ala,[8]; brdt(1)L063A vs WT brd3(2),40
same,Selectivity factor Kd WT/Kd Leu/Ala,[8]; brdt(1)L063A vs WT brd4(1),67
same,Selectivity factor Kd WT/Kd Leu/Ala,[8]; brdt(1)L063A vs WT brd4(2),54
same,Selectivity factor Kd WT/Kd Leu/Ala,[8]; brdt(1)L063A vs WT brdt(1),46
same,Selectivity factor Kd WT/Kd Leu/Ala,[8]; brdt(1)L063A vs WT brdt(2),65
